Data on 58 molecules can be found in PMC7489219 (Molecular Brain, 2020).

Structures can show the parent of a compound that is named as a salt.

In this experiment the test system is T1, primary mouse cortical neurons.
T1 construct: primary cortical neurons, DIV 10
Kind of experiment: cells. As to conditions: Cortical neurone, 20 h, read-out: % inhibition, inhibition of NMDA-induced cell death (protection score), 30 min pre-treatment. The arrangement: Protection from NMDA-induced (30 uM, 10 min) neuronal death; Hoechst nuclear morphology by automated microscopy. A digest of the protocol: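 On DIV 10, primary mouse cortical neurons were given compound at 10 μM for 30 min at 37 °C, then 30 μM NMDA for 10 min, washed, and kept 20 h with compound. Dead cells were scored by nuclear morphology, and % protection was derived from survival relative to vehicle + NMDA and untreated controls.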

Turning to `C[C@@H]1[C@H](O)[C@@H](C)/C=C/C=C/CC/C=C/C=C/C=C/C=C/[C@H](O[C@@H]2O[C@H](C)[C@@H](O)[C@H](N)[C@@H]2O)C[C@@H]2O[C@](O)(C[C@@H](O)[C@H](O)CC[C@@H](O)C[C@@H](O)C[C@@H](O)CC(=O)O[C@H]1C)C[C@H](O)[C@H]2C(=O)O` [Nystatin (Mycostatin)], the inhibition (as a rule, the drop in the measured response relative to a control, in per cent) at 10 µM came out at 4%.
With `C#Cc1cccc(Nc2ncnc3cc(OCCOC)c(OCCO)cc23)c1` [OSI-420 (Desmethyl Erlotinib)] the figure was -0.167%.
In the case of `CC1COc2c(N3CCN(C)CC3)c(F)cc3c(=O)c(C(=O)O)cn1c23` (stereo not shown) [Ofloxacin (Floxin)], the inhibition at 10 µM is -0.567%.
Next, `Cc1cc2c(s1)Nc1ccccc1N=C2N1CCN(C)CC1` [Olanzapine (Zyprexa)]: 12.7%.
With `CC1(C)CC[C@]2(C(=O)O)CC[C@]3(C)C(=CC[C@@H]4[C@@]5(C)CC[C@H](O)C(C)(C)[C@@H]5CC[C@]43C)[C@@H]2C1` [Oleanolic Acid (Caryophyllin)] the figure was -2%.
Next, `CN(C)CC/C=C1/c2ccccc2COc2ccc(CC(=O)O)cc21` [Olopatadine hydrochloride (Opatanol)]: -8.38%.
Regarding `C=C1C(=O)[C@]23[C@H](O)[C@H]1CC[C@H]2[C@@]12CO[C@]3(O)[C@@H](O)[C@@H]1C(C)(C)CC[C@@H]2O` [Oridonin (Isodonol)], the inhibition at 10 µM was -2.85%.
With `CCCCCCCCCCC[C@@H](C[C@@H]1OC(=O)[C@H]1CCCCCC)OC(=O)[C@H](CC(C)C)NC=O` [Orlistat (Alli, Xenical)] the figure was -9.87%.
Regarding `O=C(O)c1cc(=O)[nH]c(=O)[nH]1` [Orotic acid (6-Carboxyuracil)], the inhibition at 10 µM is -3.32%.
With `COc1ccc2ccc(=O)oc2c1CC=C(C)C` [Osthole (Osthol)], the inhibition at 10 µM was -1.21%.
As for `CCN(CC)CC#CCOC(=O)C(O)(c1ccccc1)C1CCCCC1` (stereo not shown) [Oxybutynin (Ditropan)], the inhibition at 10 µM amounted to 37.3%.
Turning to `O=C1CCC[C@@H]2[C@H]3CCC[N@+]4([O-])CCC[C@@H](CN12)[C@@H]34` [Oxymatrine (Matrine N-oxide)], the inhibition at 10 µM is -1.44%.
With `Cc1cc(C(C)(C)C)c(O)c(C)c1CC1=NCCN1` [Oxymetazoline hydrochloride] the figure was -9.52%; with `CN(C)[C@@H]1C(=O)C(C(N)=O)=C(O)[C@@]2(O)C(=O)C3=C(O)c4c(O)cccc4[C@@](C)(O)[C@H]3[C@H](O)[C@@H]12` [Oxytetracycline (Terramycin)], 2.79%; with `O=C(O)/C=C/c1ccc(Cn2ccnc2)cc1` [Ozagrel], -9.99%.
On to `CC(=O)O[C@H]1C(=O)[C@@]2(C)[C@H]([C@H](OC(=O)c3ccccc3)[C@]3(O)C[C@H](OC(=O)[C@H](O)[C@@H](NC(=O)c4ccccc4)c4ccccc4)C(C)=C1C3(C)C)[C@]1(OC(C)=O)CO[C@@H]1C[C@@H]2O` [Paclitaxel (Taxol)], for which the inhibition at 10 µM was -12.8%.
For `COc1ccc(C(C)=O)c(O)c1` [Paeonol (Peonol)], the inhibition at 10 µM is -2.06%.
In the case of `Cc1nc2n(c(=O)c1CCN1CCC(c3noc4cc(F)ccc34)CC1)CCCC2O` (stereo not shown) [Paliperidone (Invega)], the inhibition at 10 µM is -1.54%.
Next, `COc1cc2c(cc1OC)-c1cc3ccc(OC)c(OC)c3c[n+]1CC2` [Palmatine chloride]: 8.5%.
With `CC(=O)O[C@H]1C[C@@H]2CC[C@@H]3[C@H](CC[C@@]4(C)[C@H]3C[C@H]([N+]3(C)CCCCC3)[C@@H]4OC(C)=O)[C@@]2(C)C[C@@H]1[N+]1(C)CCCCC1` [Pancuronium (Pavulon)] the figure was 7.54%.
With `C=C1C(=O)O[C@H]2[C@H]1CC/C(C)=C/CC[C@@]1(C)O[C@@H]21` [Parthenolide ((-)-Parthenolide)] the figure was -3.83%; with `Cc1ccc(Nc2nccc(N(C)c3ccc4c(C)n(C)nc4c3)n2)cc1S(N)(=O)=O` [Pazopanib HCl], -2.36%; with `Nc1nc2[nH]cc(CCc3ccc(C(=O)N[C@@H](CCC(=O)O)C(=O)O)cc3)c2c(=O)[nH]1` [Pemetrexed], 0.519%.
With `CCC[C@H](N[C@@H](C)C(=O)N1[C@H](C(=O)O)C[C@@H]2CCCC[C@@H]21)C(=O)OCC` [Perindopril Erbumine (Aceon)], the inhibition at 10 µM was -1.31%.
Next, `CCCCC1C(=O)N(c2ccccc2)N(c2ccccc2)C1=O` [Phenylbutazone (Butazolidin, Butatron)]: 47.4%; `O=C1NC(=O)C(c2ccccc2)(c2ccccc2)N1` [Phenytoin (Lepitoin)]: 21.2%.
Next, `O=C1N=C(O)NC1(c1ccccc1)c1ccccc1` [Phenytoin sodium (Dilantin)]: 3.12%; `O=C(CCc1ccc(O)cc1)c1c(O)cc(O)cc1O` [Phloretin (Dihydronaringenin)]: -1.62%.
Next, `O=C(CCc1ccc(O)cc1)c1c(O)cc(O)cc1O[C@@H]1O[C@H](CO)[C@@H](O)[C@H](O)[C@H]1O` [Phlorizin (Phloridzin)]: -2.89%; `COc1ccc(-c2nc3cc(C4=NNC(=O)CC4C)ccc3[nH]2)cc1` (stereo not shown) [Pimobendan (Vetmedin)]: -0.217%; `O=C(/C=C/C=C/c1ccc2c(c1)OCO2)N1CCCCC1` [Piperine (1-Piperoylpiperidine)]: -1.51%.
Turning to `CN1C(C(=O)Nc2ccccn2)=C(O)c2ccccc2S1(=O)=O` [Piroxicam (Feldene)], the inhibition at 10 µM stood at 4.8%.
For `O=C(O)C[C@H](O)C[C@H](O)/C=C/c1c(C2CC2)nc2ccccc2c1-c1ccc(F)cc1` [Pitavastatin calcium (Livalo)], the inhibition at 10 µM was determined as 17.7%.
Next, `OC[C@H]1O[C@@H](Oc2cc(O)cc(C=Cc3ccc(O)cc3)c2)[C@H](O)[C@@H](O)[C@@H]1O` [Polydatin (Piceid)]: 1.2%; `CC[C@@H]([C@H](C)O)n1ncn(-c2ccc(N3CCN(c4ccc(OC[C@@H]5CO[C@@](Cn6cncn6)(c6ccc(F)cc6F)C5)cc4)CC3)cc2)c1=O` [Posaconazole]: -12.5%; `CCCN[C@H]1CCc2nc(N)sc2C1` [Pramipexole dihydrochloride monohydrate]: -0.655%.
For the molecule `CC(=O)Oc1cc2c(s1)CCN(C(C(=O)C1CC1)c1ccccc1F)C2` (stereo not shown) [Prasugrel (Effient)], the inhibition at 10 µM is -7.75%.
With `C[C@]12C=CC(=O)C=C1CC[C@@H]1[C@@H]2[C@@H](O)C[C@@]2(C)[C@H]1CC[C@]2(O)C(=O)CO` [Prednisolone (Hydroretrocortine)] the figure was 4.33%; with `CC(=O)OCC(=O)[C@@]1(O)CC[C@H]2[C@@H]3CCC4=CC(=O)C=C[C@]4(C)[C@H]3[C@@H](O)C[C@@]21C` [Prednisolone acetate (Omnipred)], -1.13%; with `C[C@]12C=CC(=O)C=C1CC[C@@H]1[C@@H]2C(=O)C[C@@]2(C)[C@H]1CC[C@]2(O)C(=O)CO` [Prednisone (Adasone)], 28.4%.
On to `CCCNC(C)C(=O)Nc1ccccc1C` (stereo not shown) [Prilocaine], for which the inhibition at 10 µM came out at 7.71%.
Next, `CCC1(c2ccccc2)C(=O)NCNC1=O` [Primidone (Mysoline)]: 27.9%; `CC(=O)[C@H]1CC[C@H]2[C@@H]3CCC4=CC(=O)CC[C@]4(C)[C@H]3CC[C@]12C` [Progesterone (Prometrium)]: 7.11%.
For `O=c1c(-c2ccc(O)cc2)coc2c([C@@H]3O[C@H](CO)[C@@H](O)[C@H](O)[C@H]3O)c(O)ccc12` [Puerarin (Kakonein)], the inhibition at 10 µM was -3.03%.
With `NC(=O)c1cnccn1` [Pyrazinamide (Pyrazinoic acid amide)] the figure was 15.2%; with `CN(C)C(=O)Oc1ccc[n+](C)c1` [Pyridostigmine Bromide (Mestinon)], 35.3%.
With `CCc1nc(N)nc(N)c1-c1ccc(Cl)cc1` [Pyrimethamine], the inhibition at 10 µM was -0.769%.
Regarding `OCCOCCN1CCN(C2=Nc3ccccc3Sc3ccccc32)CC1` [Quetiapine fumarate (Seroquel)], the inhibition at 10 µM is 0.552%.
With `C=C[C@H]1CN2CC[C@H]1C[C@H]2[C@H](O)c1ccnc2ccc(OC)cc12` [Quinine hydrochloride dihydrate] the figure was -0.947%; with `CC(=O)SCC(Cc1ccccc1)C(=O)NCC(=O)OCc1ccccc1` (stereo not shown) [Racecadotril (Acetorphan)], -7.37%; with `Cc1nnc(C(=O)NC(C)(C)c2nc(C(=O)NCc3ccc(F)cc3)c(O)c(=O)n2C)o1` [Raltegravir (MK-0518)], 8.86%.
With `CCC(=O)NCC[C@@H]1CCc2ccc3c(c21)CCO3` [Ramelteon (TAK-375)] the figure was -3.3%; with `CCOC(=O)[C@H](CCc1ccccc1)N[C@@H](C)C(=O)N1[C@H](C(=O)O)C[C@@H]2CCC[C@@H]21` [Ramipril (Altace)], -0.755%.
With `CN/C(=C\[N+](=O)[O-])NCCSCc1ccc(CN(C)C)o1` [Ranitidine (Zantac)] the figure was 1.37%; with `CO[C@H]1C[C@@H]2CC[C@@H](C)[C@@](O)(O2)C(=O)C(=O)N2CCCC[C@H]2C(=O)O[C@H]([C@H](C)C[C@@H]2CC[C@@H](O)[C@H](OC)C2)CC(=O)[C@H](C)/C=C(\C)[C@@H](O)[C@@H](OC)C(=O)[C@H](C)C[C@H](C)/C=C/C=C/C=C/1C` [Rapamycin (Sirolimus)], -1.51%.
Turning to `CCOc1cc(CC(=O)N[C@@H](CC(C)C)c2ccccc2N2CCCCC2)ccc1C(=O)O` [Repaglinide], the inhibition at 10 µM was -4.69%.
For the molecule `COC(=O)[C@H]1[C@H]2C[C@@H]3c4[nH]c5cc(OC)ccc5c4CCN3C[C@H]2C[C@@H](OC(=O)c2cc(OC)c(OC)c(OC)c2)[C@@H]1OC` [Reserpine], the inhibition at 10 µM is 24%.
As to `Oc1ccc(/C=C/c2cc(O)cc(O)c2)cc1` [Resveratrol], the inhibition at 10 µM is 22.8%.
